Data from patent US12698311B2, “Process for the preparation of an antimicrobial peptide” (INSTITUTE OF BIORESOURCES AND SUSTAINABLE DEVELOPMENT, priority 2020, dated 2026).
No end group written: not given here.

How the values were obtained:
[1] = Retention of antimicrobial activity after treatment with inorganic solvents and temperature; assay type: physicochemical; parameters: key to Activity: (+) retention; (−) loss
Excerpt: Effect of Temperature and Inorganic Solvents:
The AMP, Peoriaerin IBSD35 is a very stable biomolecule and works on a wide range of temperature and pH and withstand against inorganic solvents as shown in Table 2 below.

[2] = Retention of antimicrobial activity after treatment with degradative enzymes; assay type: physicochemical; parameters: key to Activity: (+) retention; (−) loss
Description: Effect of Physiological Enzymes:
The purified AMP, Peoriaerin IBSD35 is treated with proteolytic enzymes, it can withstand against enzymes and its antimicrobial activity was checked by measuring the zone of inhibition as shown in Table 3 below.

[3] = Retention of antimicrobial activity after treatment with detergents; assay type: physicochemical; parameters: key: (+) retention; (−) loss
Description: The surfactants such as sodium dodecyl sulphate (SDS), Tween 20, Tween 80 and Triton X were incubated with the anti-microbial compound, Peoriaerin IBSD35.

[4] = system: Candida albicans ATCC 10231, Escherichia coli ATCC 25922, Klebsiella pneumoniae ATCC 4352, Salmonella typhimurium ATCC 14028, Candida tropicalis ATCC 750 and …; assay: Spectrum of antimicrobial activity against AMR pathogens; assay type: cell-based; conditions: six ATCC strains listed
Description: Spectrum of antimicrobial activity: The spectrum of activity was determined from the selected test pathogens viz. S. aureus ATCC25923, C. ablicans ATCC 10231, and E. coli ATCC 25922 which represented as a Gram (+), Gram (−) and fungal pathogens (FIG. 2). […] The cell debris were removed by centrifugation at 4000 rpm for 15 min at 4° C. The supernatant was harvested for antimicrobial bioassay and preserved at 4° C. for further purification (Fujita et al., 2007). The well loaded with samples that shown a clear halo zone of inhibition (at least 6-7 mm diameter) were taken as positive against the selected Gram (+ve), Gram (−ve) and fungal pathogens. The bacterial endophytic strain IBSD35 isolated from M. pachycarpa has shown a broad-spectrum of AA against the representative test pathogens in the preliminary Spot-on-lawn bioassay and the Cut-well agar diffusion bioassay (FIG. 2). It inferred antifungal, antibacterial and antimicrobial property of the endophyte strain IBSD35.

[5] = assay type: cell-based; conditions: broth dilution bioassay
Description: The peptides were recovered by lyophilization and stored at −20° C. until further use. The MIC of the RP-HPLC purified bioactive metabolite was determined to be 0.0365 μg μl^−1 with broth dilution bioassay. The two peaks were detected in the selected wavelengths of λ280 nm, λ205 nm and λ214 nm. However, only the peak 1 was selected for further study as it had shown more potency in antimicrobial susceptibility test.

With “GFEFAGAGNGVGRVNSATDATYGLGVFLDAGDNNLAKNAESTGYNDANAVTVTK [Peoriaerin IBSD35]” as the sequence, how does the “stable at a pH in the range” value [1] read?
Its value is 4-9.

And the Activity ([1]; after Acetone (1:1))?
The Activity was “+”.

And the Activity ([1]; after Butanol (1:1))?
Its Activity is “+”.

And the Activity ([1]; after Ethyl acetate (1:1))?
The Activity was “+”.

What about the Activity ([1]; after Isopropanol (1:1)) of the same sequence?
Its Activity is “+”.

And the Activity ([1]; after Methanol (1:1))?
Its Activity is “+”.

What about the Activity ([1]; after Petroleum ether (1:1)) of the same sequence?
The Activity was “+”.

And the Activity ([1]; after Temperature 20 ° C.)?
The Activity was “+”.

And the Activity ([1]; after Temperature 40 ° C.)?
Its Activity is “+”.

And the Activity ([1]; after Temperature 60 ° C.)?
Its Activity is “+”.

And the Activity ([1]; after Temperature 80 ° C.)?
Its Activity is “+”.

And the Activity ([1]; after Temperature 100 ° C.)?
The Activity was “+”.

And the Activity ([1]; after Temperature 121 ° C.)?
The Activity was “+”.

What about the Activity ([2]; after Catalase) of the same sequence?
Its Activity is “+”.

And the Activity ([2]; after Cellulase)?
Its Activity is “+”.

What about the Activity ([2]; after Pectinase) of the same sequence?
Its Activity is “+”.

And the Activity ([2]; after Pepsin)?
Its Activity is “+”.

What about the Activity ([2]; after Proteinase K (1 mg/ml)) of the same sequence?
The Activity was “+”.

And the “Zone of inhibition diameter” value ([2]; after Proteinase K (1 mg/ml))?
Its value is 11 mm.

What about the Activity ([3]; after SDS (1:1)) of the same sequence?
The Activity was “+”.

What about the Activity ([3]; after Triton X (1:1)) of the same sequence?
Its Activity is “+”.

What about the Activity ([3]; after Tween 20 (1:1)) of the same sequence?
Its Activity is “+”.

And the Activity ([3]; after Tween 80 (1:1))?
The Activity was “+”.

And the “antimicrobial activity against gram positive, gram negative and fungal anti-microbial resistant pathogens” value [4]?
Its value is “strong and broad spectrum of antimicrobial activity”.

And the MIC [5]?
Its MIC is 36.5 mg/L.
